Read-outs that look alike come from different tables or passages of the source.
Experiments:
[1] = system: compound 48/80-induced gastric lesions; conditions: rats treated with compound 48/80; known serotonin antagonists; cited from earlier work
[2] = system: apomorphine-induced phenomena: agitation and stereotypic chewing; test: apomorphine (APO) test in rats, part of the combined APO-TRY-NOR test; format: in vivo, male Wistar rats; conditions: Rattus norvegicus, sc, 0.5 h, read-out: ED50 (APO)-rat
[3] = system: compound 48/80-induced lethality; test: protection of rats from compound 48/80-induced lethality; format: in vivo, male Wistar rats; conditions: Rattus norvegicus, sc, 4 h, s.c., compound 48/80 0.5 mg/kg i.v. 1 hour after treatment, 50% protected against lethality, read-out: 48/80-test ED50
Source text: PROTECTION OF RATS FROM COMPOUND 48/80-INDUCED LETHALITY
Compound 48/80, a mixture of oligomers obtained by condensation of 4-methoxy-N-methyl-phenethylamine and formaldehyde has been described as a potent histamine releasing agent (Int. Arch. Allergy, 13, 336 (1958)). The protection from compound 48/80-induced lethal circulatory collapse appears to be a simple way of evaluating quantitatively the antihistaminic activity of test-compounds. Male rats of an inbred Wistar strain, weighing 240-260 g were used in the experiment. After overnight starvation the rats were transferred to conditioned laboratories (temp.=21±1° C., relative humidity=65±5%). The rats were treated subcutaneously or orally with a test compound or with the solvent (NaCl solution, 0.9%). One hour after treatment there was injected intravenously compound 48/80, freshly dissolved in water, at a dose of 0.5 mg/kg (0.2 ml/100 g of body weight). In control experiments, wherein 250 solvent-treated animals were injected with the standard dose of compound 48/80 not more than 2.8% of the animals survived after 4 hours, is therefore considered to be a safe criterion of a protective effect of drug administration.
In this connection the ED50 -values are the minimal doses of the concerned compounds, administered in the subcutaneous way, whereby 50% of the rats are protected against compound 48/80-induced lethality.

[4] = system: serotonin-induced contraction of rat caudal artery; test: antagonistic activity on the effect of serotonin on the caudal artery of the rat; conditions: serotonin 40 ng/ml; minimal concentration reducing contraction amplitude to at least 50% of normal; 5 min
Procedure: ANTAGONISTIC ACTIVITY ON THE EFFECT OF SEROTONIN ON THE CAUDAL ARTERY OF THE RAT
Caudal arteries from fasted male rats (210-235 g) were used in the test. Two helical strips having a length of 5-6 cm and a width of 2 mm. were obtained from each artery and mounted vertically in a 100 ml organ bath containing an oxygenated Krebs-Henseleit solution. Submaximal contractions of the arterial strips were produced by adding single doses of serotonin (40 ng/ml) to the organ bath for 2 minutes with each time an interval of 10 minutes. The amplitude of the contraction was measured before and 5 minutes after adding the drug. After washing out, the agonist was added again three times in order to see whether the contraction was restored and normalized.

[5] = system: tryptamine-induced bilateral tonic seizures; test: tryptamine (TRY) test in rats, part of the combined APO-TRY-NOR test; format: in vivo, male Wistar rats; conditions: Rattus norvegicus, sc, 1.5 h, tryptamine 40 mg/kg i.v. at 90 min
[6] = system: norepinephrine-induced mortality; test: norepinephrine (NOR) test in rats, part of the combined APO-TRY-NOR test; format: in vivo, male Wistar rats; conditions: Rattus norvegicus, sc, 2 h, norepinephrine 1.25 mg/kg i.v. at 120 min
Procedure: THE COMBINED APOMORPHINE (APO)-, TRYPTAMINE (TRY)- AND NOREPINEPHRINE (NOR) TEST IN RATS
The experimental animals used in this test were adult male Wistar rats (weight 240±10 g). After an overnight fast, the animals were treated subcutaneously (1 ml/100 g) with an aqueous solution of the compound under investigation (time=zero) and put in isolated observation cages. […] At the end of this 1 hour period (time=90 minutes) the same animals were injected intravenously with 40 mg/kg of tryptamine (TRY) and the presence of the typical tryptamine-induced bilateral tonic seizures was noted. Two hours after pretreatment (time=120 minutes) finally, the same animals were challenged with 1.25 mg/kg intravenously of norepinephrine (NOR) and possible mortality was looked for up to 60 minutes later.
The table 1 gives the ED50 -values of a number of the compounds under consideration. As used herein, the ED50 -value represents the dose which protects 50% of the animals from apomorphine-, tryptamine- or norepinephrine-induced phenomena.

[7] = system: apomorphine-induced emesis; test: apomorphine test in dogs (APO-dog); format: in vivo; conditions: Canis lupus familiaris, sc; beagle dogs; apomorphine 0.31 mg/kg s.c. 1 hour after compound; protection from emesis
[8] = system: compound 48/80-induced gastric lesions; test: gastric lesion test: lesions induced by compound 48/80; format: in vivo; conditions: Rattus norvegicus; rats; compound 48/80; distension of the stomach completely absent in 50% of rats; read-out: gastric lesion test ED50
[9] = s.c., rats, apomorphine 1.25 mg/kg i.v. 30 min after compound

Compound	prevention of cyanosis of ears and extremities, lesions in the glandular area of the stomach and abnormal gastric distension [1]	ED50 [3] [mg/kg]	caudal artery rat ED50 [4] [ng/mL]	ED50 [5] [mg/kg]	ED50 [6] [mg/kg]	ED50 [7] [mg/kg]	ED50 [8] [mg/kg]	further results
CN1CCN2c3ccccc3Cc3ccccc3C2C1 (stereo not drawn) [mianserin]	prevent completely							
CN1CCC(=C2c3ccccc3CCc3sccc32)CC1 [pizotifen]	prevent completely							
CC[C@@H](CO)NC(=O)[C@@H]1C=C2c3cccc4c3c(cn4C)C[C@H]2N(C)C1 [methysergide]	prevent completely							
O=C(CCCN1CCC2(CC1)C(=O)NCN2c1ccccc1)c1ccc(F)cc1 [spiperone]	prevent completely							
CN(C)CCCSc1ccccc1NC(=O)/C=C/c1ccccc1 [cinanserin]	prevent completely							
Cc1nc2sccn2c(=O)c1CCN1CCC(c2c[nH]c3ccc(F)cc23)CC1 [compound 22, 6-[2-[4-(5-fluoro-1H-indol-3-yl)-1-piperidinyl]ethyl]-7-methyl-5H-thiazolo[3,2-a]pyrimidin-5-one]		1.25	1.25	0.31	1.25	0.12	0.08	ED50 [2]: 1.25 mg/kg
Cc1nc2sccn2c(=O)c1CCN1CCC(C(=O)c2ccc(F)cc2)CC1 [compound 5, 6-[2-[4-(4-fluorobenzoyl)-1-piperidinyl]ethyl]-7-methyl-5H-thiazolo[3,2-a]pyrimidin-5-one]		0.31	0.14	0.01	0.63	0.015	0.005	ED50 [2, 9]: 0.02 mg/kg
Cc1nc2sc3c(n2c(=O)c1CCN1CCC(c2c[nH]c4ccccc24)CC1)CCC3 [compound 17, 7,8-dihydro-3-[2-[4-(1H-indol-3-yl)-1-piperidinyl]ethyl]-2-methyl-4H,6H-cyclopenta[4,5]thiazolo[3,2-a]-pyrimidin-4-one]		0.08	0.31	0.16	0.31	0.03	0.31	ED50 [2, 9]: 0.63 mg/kg
NC(=O)C1(N2CCCCC2)CCN(CCCC(=O)c2ccc(F)cc2)CC1 [pipamperone]	prevent completely							
Cc1nc2n(c(=O)c1CCN1CCC(C(=O)c3ccc(F)cc3)CC1)CCCS2 [compound 2, 7-[2-[4-(4-fluorobenzoyl)-1-piperidinyl]ethyl]3,4-dihydro-8-methyl-2H,6H-pyrimido[2,1-b][1,3]thiazin-6-one]		0.16	0.32	0.63	1.25	0.03	0.01	ED50 [2]: 0.31 mg/kg
CN1CCC(=C2c3ccccc3C=Cc3ccccc32)CC1 [cyproheptadine]	prevent completely							
CN1C[C@H](CNC(=O)OCc2ccccc2)C[C@@H]2c3cccc4c3c(cn4C)C[C@H]21 [metergoline]	prevent completely							

— patent US4548938A, “5-H-1,3,4-thiadiazolo[3,2-a]pyrimidin-5-one compounds” (Janssen Pharmaceutica N.V., priority 1985, dated 1985)
